Laboratory results reported in ChEMBL document CHEMBL3875162, “Synthesis and biological evaluation of new benzimidazole-thiazolidinedione hybrids as potential cytotoxic and apoptosis inducing agents” (Eur J Med Chem, 2016).
pIC50: −log10 of the molar value. Calls of active or inactive are those of the source. The calls are words filed in the database; no cut-off is given here.

Legend:
[1] = Cytotoxicity against human MDA-MB-231 cells assessed as cell growth inhibition after 48 hrs by MTT assay; type: functional, cell-based; conditions: MDA-MB-231, 48 h
A549 [2] = experiment: Induction of apoptosis in human A549 cells assessed as nucleus fragmentation at 5 to 15 uM after 24 hrs by DAPI staining based fluorescence microscopic method; type: functional, cell-based
A549 [3] = experiment: Induction of mitochondrial membrane potential loss in human A549 cells at 5 uM after 24 hrs by rhodamine-123 staining based flow cytometry relative to control; type: functional
[4] = Cytotoxicity against human A549 cells assessed as cell growth inhibition after 48 hrs by MTT assay; type: functional, cell-based; conditions: A549, 48 h
[5] = Cell cycle arrest in human A549 cells assessed as accumulation at S phase at 5 uM after 24 hrs by propidium iodide staining-based flow cytometry (reference value: 11.5%); type: functional
A549 [6] = experiment: Induction of apoptosis in human A549 cells assessed as appearance of horse-shoe shaped nucleus at 5 to 15 uM after 24 hrs by DAPI staining based fluorescence microscopic method; type: functional, cell-based
A549 [7] = experiment: Induction of apoptosis in human A549 cells assessed as late apoptotic cells at 15 uM after 24 hrs by Annexin V-FITC/propidium iodide staining based flow cytometry (reference value: 0.8%); type: functional
A549 [8] = experiment: Induction of apoptosis in human A549 cells assessed as viable cells at 15 uM after 24 hrs by Annexin V-FITC/propidium iodide staining based flow cytometry (reference value: 94%); type: functional; conditions: A549, 24 h, read-out: Activity
[9] = Cell cycle arrest in human A549 cells assessed as accumulation at G2/M phase at 5 uM after 24 hrs by propidium iodide staining-based flow cytometry (reference value: 23.3%); type: functional
[10] = Cell cycle arrest in human A549 cells assessed as decrease in cell levels at G0/G1 phase after 24 hrs by propidium iodide staining-based flow cytometry; type: functional
A549 [11] = experiment: Induction of apoptosis in human A549 cells assessed as pyknosis at 5 to 15 uM after 24 hrs by DAPI staining based fluorescence microscopic method; type: functional, cell-based
[12] = Cell cycle arrest in human A549 cells assessed as accumulation at G0/G1 phase at 15 uM after 24 hrs by propidium iodide staining-based flow cytometry (reference value: 66.6%); type: functional
A549 [13] = experiment: Antimigratory activity in human A549 cells after 24 hrs by phase contrast microscopy-based wound healing assay; type: functional, cell-based

Cn1c(/C=C2\SC(=O)N(CC(=O)Nc3nc(-c4ccccc4)cs3)C2=O)nc2ccccc21
pIC50 [1]: 4.53 | Activity (A549 [2]): Active | Activity (A549 [3]): 24.6% | pIC50 [4]: 4.94 | Activity [5]: 11.4% | Activity (A549 [6]): Active | Activity (A549 [7]): 11.9% | viability at 15 µM (A549 [8]): 66.8% | Activity [9]: 41.4% | Activity [10]: Dose-dependent effect | Activity (A549 [11]): Active | Activity [12]: 30.5% | Activity (A549 [13]): Dose-dependent effect
